Reference: publication PMC6572064, “Discovery of 2-(1-(3-(4-Chloroxyphenyl)-3-oxo- propyl)pyrrolidine-3-yl)-1H-benzo[d]imidazole-4-carboxamide: A Potent Poly(ADP-ribose) Polymerase (PARP) Inhibitor for Treatment of Cancer” (Molecules, 2019)
Where two headings read alike, the source gives them in different places.

How the values were obtained:
[1] = system: MDA-MB-436 (a BRCA-1-mutated breast cancer cell line); assay: Cell proliferation assay, three-day, CellTiter-Glo, MDA-MB-436; type: cell-based; conditions: for inhibition at 0.00508 µM / inhibition at 0.0152 µM / inhibition at 0.0457 µM / inhibition at 0.41 µM / inhibition at 1.23 µM / inhibition at 3.7 µM / inhibition at 11.11 µM / inhibition at 33.33 µM / inhibition at 100 µM / IC50: Homo sapiens; for inhibition at 0.00508 µM: MDA-MB-436, MDA-MB-436, Conc. 0.00508 uM; for inhibition at 0.0152 µM: MDA-MB-436, MDA-MB-436, Conc. 0.0152 uM; for inhibition at 0.0457 µM: MDA-MB-436, MDA-MB-436, Conc. 0.0457 uM; for inhibition at 0.41 µM: MDA-MB-436, MDA-MB-436, Conc. 0.41 uM; for inhibition at 1.23 µM: MDA-MB-436, MDA-MB-436, Conc. 1.23 uM; for inhibition at 3.7 µM: MDA-MB-436, MDA-MB-436, Conc. 3.70 uM; for inhibition at 11.11 µM: MDA-MB-436, MDA-MB-436, Conc. 11.11 uM; for inhibition at 33.33 µM: MDA-MB-436, MDA-MB-436, Conc. 33.33 uM; for inhibition at 100 µM: MDA-MB-436, MDA-MB-436, Conc. 100.00 uM
Procedure, shortened: (§1)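 Cells seeded overnight in 384-well plates, then exposed to compounds (DMSO stock diluted in medium) for 72 h at 37 °C, 5% CO2. Viability read as CellTiter-Glo luminescence after 60 min at room temperature.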

[2] = target: T1, PARP-2 (Homo sapiens, UniProt Q9UGN5); assay: PARP-2 inhibition assay (PARP-2 Chemiluminescent Assay Kit, BPS Bioscience); type: biochemical; conditions: for inhibition at 0.01 µM: 10 nM compound
T1 construct: purchased BPS Bioscience 80552
T1 sequence (Q9UGN5 whole entry): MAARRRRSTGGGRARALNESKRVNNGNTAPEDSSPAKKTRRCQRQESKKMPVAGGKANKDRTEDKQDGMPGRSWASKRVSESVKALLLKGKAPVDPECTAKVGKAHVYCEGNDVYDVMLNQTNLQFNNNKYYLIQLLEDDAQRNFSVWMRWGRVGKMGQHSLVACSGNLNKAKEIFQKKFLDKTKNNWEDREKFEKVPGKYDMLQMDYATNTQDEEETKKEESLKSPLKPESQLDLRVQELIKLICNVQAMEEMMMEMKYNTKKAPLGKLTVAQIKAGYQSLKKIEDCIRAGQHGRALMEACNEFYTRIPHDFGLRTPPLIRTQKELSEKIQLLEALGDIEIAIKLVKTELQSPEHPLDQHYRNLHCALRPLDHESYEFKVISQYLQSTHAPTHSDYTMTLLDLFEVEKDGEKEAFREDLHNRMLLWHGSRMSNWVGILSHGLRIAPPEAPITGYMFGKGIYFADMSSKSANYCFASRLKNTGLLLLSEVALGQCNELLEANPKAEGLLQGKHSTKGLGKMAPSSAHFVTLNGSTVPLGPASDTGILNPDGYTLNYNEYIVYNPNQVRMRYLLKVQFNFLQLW
Experimental: (§2) The PARP-1 and PARP-2 inhibition assays were performed in outsourcing, by a CRO company, Shanghai Medicilon Inc. (Shanghai, China). […] Briefly, PARP-1 or PARP-2 biotinylated substrate was incubated with compounds or solvent control at varying concentrations and an assay buffer containing the PARP-1 or PARP-2 enzyme.

[3] = system: CAPAN-1 (a BRCA-2-mutated pancreatic cancer cell line); assay: Cell proliferation assay, three-day, CellTiter-Glo, CAPAN-1; type: cell-based; conditions: for IC50 / inhibition at 0.00508 µM / inhibition at 0.0152 µM / inhibition at 0.0457 µM / inhibition at […] / inhibition at 0.41 µM / inhibition at 1.23 µM / inhibition at 3.7 µM / inhibition at 11.11 µM / inhibition at 33.33 µM / inhibition at 100 µM: Homo sapiens; for inhibition at 0.00508 µM: CAPAN-1, Conc. 0.00508 uM; for inhibition at 0.0152 µM: CAPAN-1, Conc. 0.0152 uM; for inhibition at 0.0457 µM: CAPAN-1, Conc. 0.0457 uM; for inhibition at […]: CAPAN-1, Conc. 0.14 uM; for inhibition at 0.41 µM: CAPAN-1, Conc. 0.41 uM; for inhibition at 1.23 µM: CAPAN-1, Conc. 1.23 uM; for inhibition at 3.7 µM: CAPAN-1, Conc. 3.70 uM; for inhibition at 11.11 µM: CAPAN-1, Conc. 11.11 uM; for inhibition at 33.33 µM: CAPAN-1, Conc. 33.33 uM; for inhibition at 100 µM: CAPAN-1, Conc. 100.00 uM
Procedure, shortened: as §1

[4] = target: T2, PARP-1 (Homo sapiens, UniProt P09874); assay: PARP-1 inhibition assay (PARP-1 Chemiluminescent Assay Kit, BPS Bioscience); type: biochemical; conditions: for inhibition at 0.01 µM: 10 nM compound
T2 construct: purchased BPS Bioscience 80569
T2 sequence (P09874 whole entry): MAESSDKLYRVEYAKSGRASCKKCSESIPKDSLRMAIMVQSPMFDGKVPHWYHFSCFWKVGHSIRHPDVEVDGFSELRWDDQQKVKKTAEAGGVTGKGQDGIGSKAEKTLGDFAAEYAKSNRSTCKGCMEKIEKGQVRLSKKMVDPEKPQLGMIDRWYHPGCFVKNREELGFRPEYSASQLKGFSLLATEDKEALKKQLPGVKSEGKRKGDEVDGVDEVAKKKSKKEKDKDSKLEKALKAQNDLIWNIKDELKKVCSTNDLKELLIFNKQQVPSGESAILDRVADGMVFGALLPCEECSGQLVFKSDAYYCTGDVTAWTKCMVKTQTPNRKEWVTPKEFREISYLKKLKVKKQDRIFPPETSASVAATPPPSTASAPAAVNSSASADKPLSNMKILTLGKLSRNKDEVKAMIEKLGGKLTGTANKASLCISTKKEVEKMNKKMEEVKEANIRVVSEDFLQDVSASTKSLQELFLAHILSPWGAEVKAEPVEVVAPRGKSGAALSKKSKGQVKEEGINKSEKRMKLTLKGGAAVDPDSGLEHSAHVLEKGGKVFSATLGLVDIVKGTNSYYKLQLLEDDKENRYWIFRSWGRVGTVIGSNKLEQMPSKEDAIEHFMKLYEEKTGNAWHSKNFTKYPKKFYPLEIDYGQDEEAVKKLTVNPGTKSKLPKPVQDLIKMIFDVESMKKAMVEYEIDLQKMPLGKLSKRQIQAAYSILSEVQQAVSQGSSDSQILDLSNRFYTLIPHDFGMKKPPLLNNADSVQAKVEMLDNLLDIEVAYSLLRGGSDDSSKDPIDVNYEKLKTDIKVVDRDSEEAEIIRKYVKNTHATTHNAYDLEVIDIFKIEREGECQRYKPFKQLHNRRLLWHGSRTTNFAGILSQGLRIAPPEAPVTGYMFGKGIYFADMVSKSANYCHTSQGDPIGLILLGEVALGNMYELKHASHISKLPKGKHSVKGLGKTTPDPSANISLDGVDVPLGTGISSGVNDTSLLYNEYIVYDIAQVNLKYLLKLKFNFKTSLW
Experimental: as §2

For `NC(=O)c1cccc2[nH]c(C3CCN(CCC(=O)c4ccccc4)C3)nc12` (centres unmarked) [Compound 5cp, 2-(1-(3-Oxo-3-phenylpropyl)pyrrolidin-3-yl)-1H-benzo[d]imidazole-4-carboxamide], the inhibition at 0.00508 µM ([1]; replicate 1, read-out: Inh % 1) was -1.4%, the inhibition at 0.00508 µM ([1]; replicate 2, read-out: Inh % 2) was -0.3% and the inhibition at 0.0152 µM ([1]; replicate 1, read-out: Inh % 1) was -1.8%. The inhibition at 0.0152 µM ([1]; replicate 2, read-out: Inh % 2) was -8.4%, the inhibition at 0.0457 µM ([1]; replicate 1, read-out: Inh % 1) was -13.1% and the inhibition at 0.0457 µM ([1]; replicate 2, read-out: Inh % 2) was -7%. The inhibition at 0.41 µM ([1]; replicate 1, read-out: Inh % 1) was -6.8%, the inhibition at 0.41 µM ([1]; replicate 2, read-out: Inh % 2) was -9.9% and the inhibition at 1.23 µM ([1]; replicate 1, read-out: Inh % 1) was -10%. It also gave an inhibition at 1.23 µM ([1]; replicate 2, read-out: Inh % 2) of -7.6%, an inhibition at 3.7 µM ([1]; replicate 1, read-out: Inh % 1) of -1.8% and an inhibition at 3.7 µM ([1]; replicate 2, read-out: Inh % 2) of -0.0749%. It also gave an inhibition at 11.11 µM ([1]; replicate 1, read-out: Inh % 1) of 7.8%, an inhibition at 11.11 µM ([1]; replicate 2, read-out: Inh % 2) of 4.7% and an inhibition at 33.33 µM ([1]; replicate 1, read-out: Inh % 1) of 91.6%. It also gave an inhibition at 33.33 µM ([1]; replicate 2, read-out: Inh % 2) of 79.7%, an inhibition at 100 µM ([1]; replicate 1, read-out: Inh % 1) of 99.8% and an inhibition at 100 µM ([1]; replicate 2, read-out: Inh % 2) of 99.4%. The IC50 ([1]; MDA-MB-436, 72 h, CellTiter-Glo, read-out: MDA-MB-436 IC50) was 19.8 µM, the IC50 ([1]; MDA-MB-436, 72 h, supplement Summary sheet, read-out: IC50) was 19.8 µM and the IC50 ([1]; MDA-MB-436, curve-fit parameter list, concentrations in uM, read-out: IC50) was 19.8 µM. It also gave a LogIC50 ([1]; MDA-MB-436, curve-fit parameter list, Log (uM)) of 1.296, an inhibition at 0.01 µM ([2]; supplement sheet, read-out: 10 nM inhibition% PAPR-2) of 76.8% and an inhibition at 0.01 µM ([2]; read-out: PARP-2 Inhibition % (10 nM)) of 76.7%. The IC50 ([2]; read-out: PARP-2 IC50) was 0.0032 µM, the IC50 ([2]; supplement sheet, read-out: IC50 PAPR-2) was 0.00315 µM and the “Inh % 1” value ([3]; CAPAN-1, Conc. printed as #REF!, replicate 1) was 18.8%. The “Inh % 2” value ([3]; CAPAN-1, Conc. printed as #REF!, replicate 2) was 21.3%, the LogIC50 ([3]; CAPAN-1, curve-fit output, concentration axis Log (uM)) was 1.19 and the IC50 ([3]; CAPAN-1, 72 h, CellTiter-Glo, read-out: CAPAN-1 IC50) was 15.5 µM. The IC50 ([3]; CAPAN-1, 72 h, supplement Summary sheet, read-out: IC50) was 15.5 µM, the inhibition at 0.00508 µM ([3]; replicate 1, read-out: Inh % 1) was -4.4% and the inhibition at 0.00508 µM ([3]; replicate 2, read-out: Inh % 2) was -9.4%. The inhibition at 0.0152 µM ([3]; replicate 1, read-out: Inh % 1) was 3.3%, the inhibition at 0.0152 µM ([3]; replicate 2, read-out: Inh % 2) was -2.6% and the inhibition at 0.0457 µM ([3]; replicate 1, read-out: Inh % 1) was 0.846%. It also gave an inhibition at 0.0457 µM ([3]; replicate 2, read-out: Inh % 2) of -4.3%, an inhibition at […] ([3]; replicate 1, read-out: Inh % 1) of 4.9% and an inhibition at […] ([3]; replicate 2, read-out: Inh % 2) of -2.2%. The inhibition at 0.41 µM ([3]; replicate 1, read-out: Inh % 1) was -7.8%, the inhibition at 0.41 µM ([3]; replicate 2, read-out: Inh % 2) was -11.6% and the inhibition at 1.23 µM ([3]; replicate 1, read-out: Inh % 1) was 17.2%. It also gave an inhibition at 1.23 µM ([3]; replicate 2, read-out: Inh % 2) of -4.7%, an inhibition at 3.7 µM ([3]; replicate 1, read-out: Inh % 1) of -2.4% and an inhibition at 3.7 µM ([3]; replicate 2, read-out: Inh % 2) of -0.7%. For the same molecule, the inhibition at 11.11 µM ([3]; replicate 1, read-out: Inh % 1) was 18.7%, the inhibition at 11.11 µM ([3]; replicate 2, read-out: Inh % 2) was 8.5% and the inhibition at 33.33 µM ([3]; replicate 1, read-out: Inh % 1) was 98.2%. For the same molecule, the inhibition at 33.33 µM ([3]; replicate 2, read-out: Inh % 2) was 97.2%, the inhibition at 100 µM ([3]; replicate 1, read-out: Inh % 1) was 99.7% and the inhibition at 100 µM ([3]; replicate 2, read-out: Inh % 2) was 99.1%. The IC50 ([3]; CAPAN-1, curve-fit output, concentration axis Log (uM), read-out: IC50) was 15.5 µM, the inhibition at 0.01 µM ([4]; supplement sheet, read-out: 10 nM inhibition% PAPR-1) was 68% and the inhibition at 0.01 µM ([4]; read-out: PARP-1 Inhibition % (10 nM)) was 68%. The IC50 ([4]; read-out: PARP-1 IC50) was 0.0036 µM and the IC50 ([4]; supplement sheet, read-out: IC50 PAPR-1) was 0.00364 µM.
